# In publication PMC10923520 (Science Advances, 2024):
# Tested on: A549 (EGFR^WT) cells
# Test: MTT cell viability inhibition assay, A549 cells
# Type: cell-based
# Conditions: Homo sapiens, A549, 72 h, read-out: IC50 (μM) A549 (EGFR^WT)
structure (smiles),measurement,value
"C=CC(=O)Nc1cc(Nc2nccc(-c3cn(C)c4ccccc34)n2)c(OC)cc1N(C)CCN(C)C [Osimertinib, osimertinib]",IC50,0.6864 ± 0.0045 µM
